{
  "source": "paper PMC8143291",
  "about": "“Cytotoxicity and Microbicidal Activity of Commonly Used Organic Solvents: A Comparative Study and Application to a Standardized Extract from Vaccinium macrocarpon” (Toxics, 2021)",
  "test_in_all_cases": "Dehydrogenase activity (DEHA) MTT test after BMD",
  "key": {"[1]": {"tested_on": "S. Aureus MRSA NBIMCC 8327", "assay_type": "cell-based, Staphylococcus aureus", "settings": "24 h exposure; % against untreated control; ± SD; n = 3", "method": "(§1) The cell dehydrogenase (DEHA, redox, metabolic) activity of all samples was measured at the end of the BMD assay, based on reducing the MTT dye to formazan by the membrane located bacterial enzyme NADH: ubiquinone reductase (H^+-translocation). The protocol of Wang et al. was applied after minor modifications. Briefly, each sample was incubated for 120 min at 37 °C with MTT at a final concentration of 0.5 mg/mL in the culture medium. The resulting non-soluble violet formazan crystals were dissolved with an equal volume of 2-propanol supplemented with 5% formic acid. The absorbance was measured at 550 nm against a blank solution containing the respective volumes of MHB and MTT.\n(§2) The IC50 values from the MTT assay were evaluated with a non-linear regression analysis (Curve fit, GraphPad Prizm 6.01 software, GraphPad Software Inc., San Diego, CA, USA) using sigmoidal concentration–response curves. The cell viability is presented as a percentage of the untreated control. […] The maximum tolerated concentration (MTC) for the cell lines was determined from three independent assays according to ISO 10993-5 as the maximum concentration at which at least 70% of the cells were viable (nonlin fit, range, GraphPad Prizm 6.01 software) GraphPad Software Inc., San Diego, CA, USA). […] The respiratory activity of the bacterial cultures was calculated as a percentage against the untreated control."}, "[2]": {"tested_on": "E. coli ATCC 35218", "assay_type": "cell-based, Escherichia coli", "settings": "in MHB; 24 h exposure; % against untreated control; ± SD; n = 3", "method": "as §1, §2"}, "[3]": {"tested_on": "Y. enterocolitica IP 864 O: 3", "assay_type": "cell-based, Yersinia enterocolitica", "settings": "24 h exposure; % against untreated control; ± SD; n = 3", "method": "as §1\nThe IC50 values from the MTT assay were evaluated with a non-linear regression analysis (Curve fit, GraphPad Prizm 6.01 software, GraphPad Software Inc., San Diego, CA, USA) using sigmoidal concentration–response curves. The cell viability is presented as a percentage of the untreated control. At least four wells were seeded for every concentration. Three independent assays were performed (n = 3). The maximum tolerated concentration (MTC) for the cell lines was determined from three independent assays according to ISO 10993-5 as the maximum concentration at which at least 70% of the cells were viable (nonlin fit, range, GraphPad Prizm 6.01 software) GraphPad Software Inc., San Diego, CA, USA). To compare the MTC values of the solvents for each cell line, the ordinary One-way ANOVA statistical analysis based on Tukey’s multiple comparisons test with a single pooled variance (GraphPad Prizm 6.01 software) GraphPad Software Inc., San Diego, CA, USA) was utilized, and p ≤ 0.05 was set as a significance level. The respiratory activity of the bacterial cultures was calculated as a percentage against the untreated control."}},
  "data": [
    {"smiles": "C[S+](C)[O-]", "note": "[DMSO, dimethyl sulfoxide]", "values": [
      {"measurement": "DEHA (dehydrogenase activity)", "setting": "[1]", "result": "13.01 ± 0.05", "unit": "%"},
      {"measurement": "DEHA (dehydrogenase activity)", "setting": "[2]", "result": 13.02, "unit": "%"},
      {"measurement": "DEHA (dehydrogenase activity)", "setting": "[3]", "result": "19.13 ± 0.17", "unit": "%"}
    ]}
  ]
}
